# Laboratory results as given in article PMC9238271, “The quorum sensing peptide EntF* promotes colorectal cancer metastasis in mice: a new factor in the host-microbiome interaction” (BMC Biology, 2022).
# Values joined by “and” are separate entries in the source; they are usually repeats but may differ in a detail not shown here. Identical values can stand only once.
# What was measured:
# [1] = test system: E-cadherin expression in HCT-116 cells; assay: Western blot of E-cadherin expression, CXCR4-negative HCT-116 cells; format: cell-based
# Procedure: HCT-8, HT-29, and HT-116 cells were grown in DMEM medium supplied with 10% fetal bovine serum (FBS) and 1% penicillin-streptomycin. Caco-2 cells were grown in DMEM medium supplied with 10% FBS, 1% non-essential amino acid NEAA), and 1% penicillin-streptomycin. Cells were cultured at 37 °C and 5% CO2. As cells reached confluency, they were detached using 0.25% Trypsin-EDTA.
# For Western blot analyses, HCT-8 (n = 15), HCT-116 (n = 12), Caco-2 (n = 6), and HT-29 (n = 12) cells were seeded in 6-well plates at a density of 1 × 10^6 cells/well. Twenty-four hours after seeding, all cell lines were treated with 1 μM EntF* or a placebo solution. HCT-8 cells were also tested for responsiveness to 1 μM EntF* synthetic alanine-derived analogs. For antagonist activity analysis, HCT-8 cells were treated with 1 μM Nef-M1 or 1 μM EntF*A1 alone or in combination with 500 nM EntF*. After 24 h, cells were detached from the surface and lysed in RIPA buffer (Thermo Scientific). Protein concentration was determined using the modified Lowry protein assay kit (Thermo Scientific), according to the manufacturer’s instructions. Protein samples were diluted to the same concentration (4 μg/μL) with water and diluted again 1:1 using 2x Laemmli buffer. After that, samples were boiled for 5 min at 95 °C to denature proteins and centrifuged for 5 min at 16,000g; supernatants were used for Western blot analyses. Equal amounts of total protein (20 μg/lane) were separated by SDS-PAGE on an Any kD^TM gel (Bio-Rad ) and then transferred to a PVDF membrane. Before incubation with antibodies, non-specific binding sites on the membranes were blocked using 5% skimmed milk solution (1 h). TBS buffer with 0.05% Tween 20 was used for all washing steps. Membranes were incubated overnight at 4 °C with an anti-E-cadherin primary antibody (1/1000 dilution). An HRP-conjugated anti-rabbit antibody (1/2000 dilution, 1 h incubation) was used for chemiluminescent detection. Membranes were incubated with the detection substrate for 5 min and signal detection was performed using the ChemiDoc EZ imager and Image Lab software (Bio-Rad). Signal intensity was normalized against the total protein content in each lanes.
# [2] = test system: luciferase-transfected HCT-8/E11 cells injected into the cecal wall; assay: Orthotopic mouse model: macroscopic number of tumor nodules on the cecum; format: in vivo, female athymic nude mice (Swiss nu/nu)
# Procedure: (§1) Six-week-old female athymic nude mice (Swiss nu/nu) were anesthetized, and a minimally invasive midline laparotomy was performed to localize the cecum. The cecum was then gently pulled out, and luciferase-transfected HCT-8/E11 cells (1 × 10^6 cells) in 20 μL serum-free DMEM medium with Matrigel (1:1) were injected into the cecal wall. Before implantation, cells were treated with EntF* (10^2 nM), Phr0662 (10^2 nM), vehicle (PBS), or TGFα positive control (0.1 μg mL^−1) solutions for 5 days. The cecum was then carefully placed back into the abdominal cavity and the surgical incision was closed with two layers of sutures with PDS 6-0. […] Once a week, mice were examined for tumor growth and metastases using bioluminescent imaging with the IVIS Lumina II (Perkin Elmer, Belgium) after i.p. injection with 200 μL luciferin (150 mg kg^−1). After 6 weeks, mice were euthanized using cervical dislocation, and the liver, diaphragm, lungs, cecum, duodenum, and peritoneum were macroscopically examined for the presence of tumor nodules. Liver and lung tissues were then fixed in formalin for 24 h and stored in 70% ethanol for maximum 3 days before embedding in paraffin. Next, a hematoxylin and eosin (H&E) staining was performed on 8 μm sections, and 3 sections per mouse were visualized using microscopy. Slides from tumor-bearing mice were analyzed by two blinded, independent investigators using the scoring system described in Additional file 5: Table S3. In case of differences, slides were scored by a third blinded, independent investigator for consensus.
# The Kolmogorov-Smirnov test was used to assess if data obtained were normally distributed. For sample size n < 10, non-parametric tests (Mann-Whitney U test) were performed directly. Slope comparison was based on linear regression analysis. Bootstrapped medians and Hedges G-values were used to calculate the effect size when sample sizes were different between the groups. Cohen’s d values were calculated as a measure of the effect size when similar standard deviations for both groups were found, and sample sizes were the same.
# [3] = test system: tumor nodules in the lungs; assay: Orthotopic mouse model: histopathological evaluation of lungs; format: in vivo, female athymic nude mice (Swiss nu/nu)
# Procedure: as §1
structure (smiles),measurement,setting,value
"CC(C)C[C@@H]1NC(=O)[C@H](CO)NC(=O)[C@H](Cc2ccccc2)NC(=O)[C@H](C(C)C)NC(=O)[C@@H](NC(=O)[C@H](CCC(=O)O)NC(=O)[C@@H](NC(=O)[C@H](CC(C)C)NC(=O)[C@H](CC(N)=O)NC(=O)[C@@H](N)CO)C(C)C)CSSC[C@@H](C(=O)N[C@@H](CC(N)=O)C(=O)O)NC(=O)[C@H](CCCCN)NC(=O)[C@H](CCCCN)NC(=O)[C@H](Cc2ccccc2)NC1=O (single isomer, unassigned) [EntF*]",effect on E-cadherin expression in HCT-116 cells,"[1]; CXCR4-negative cells, 24 h, n = 12",no decrease
same,Relative E-cadherin level,"[1]; HCT-116 cells, average of n = 12",103.8
same,"effect size class by Hedges' G, number of nodules in the cecum","[2]; after a 6-week treatment, compared to the placebo group",medium
same,Mean amount of nodules,"[2]; macroscopic evaluation caecum, mean of the group",11.5
same,number of tumor nodules in the lungs compared to the vehicle,"[3]; 6 weeks of treatment, H&E histopathological score, n = 30 EntF*, n = 8 PBS",significantly higher number of tumor nodules
same,"Histology scoring LUNGS, Scoring person 1 (ND)","[3]; individual samples, one line per sample",3 and 4 and 0 and 1
same,"Histology scoring LUNGS, conclusion per group",[3]; per group,1
